# Test results published in patent US20080009418A1, “Selective Inhibitors” (Alchemia LTD., priority 2004, published 2008).
# Assays:
# Human Melanocortin (MC3) = biological target: T1, Human Melanocortin (MC3) (Homo sapiens, UniProt P41968); test: Radioligand binding, human melanocortin MC3 membranes, FlashPlate, [125I]-NDP-αMSH; settings: compound at 10 μM; [125I]-NDP-αMSH
# T1 construct: purchased Perkin Elmer Biosignal
# In short: (§1)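 Cloned human receptor membranes were coated onto FlashPlate wells and incubated with radioligand and compound (added from a 0.5 mM DMSO daughter plate) for 1 hour at room temperature in the dark. Scintillation counting gave percent inhibition, with DMSO defining total and reference ligand defining non-specific binding.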
# Human opioid (ORL1) = biological target: T2, Human opioid (ORL1) (Homo sapiens, UniProt P41146); test: Radioligand binding, human opioid ORL1 membranes, FlashPlate, [125I]-Nociceptin; settings: compound at 10 μM; [125I]-Nociceptin
# T2 construct: purchased Perkin Elmer Biosignal
# In short: as §1
# Human δ-opioid (DOP) = biological target: T3, Human δ-opioid (DOP) (Homo sapiens, UniProt P41143); test: Radioligand binding, human δ-opioid (DOP) membranes, FlashPlate, [3H]-Bremazocine; settings: compound at 10 μM; [3H]-Bremazocine
# T3 construct: purchased Perkin Elmer Biosignal
# In short: as §1
# Human κ-Opioid (KOP) = biological target: T4, Human κ-Opioid (KOP) (Homo sapiens, UniProt P41145); test: Radioligand binding, human κ-opioid (KOP) membranes, filtration, [3H]-Diprenorphine; settings: compound at 10 μM; [3H]-Diprenorphine
# T4 construct: purchased Perkin Elmer Biosignal
# In short: (§2)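 Filtration binding on cloned human receptor membranes (1 Unit/well), [125I]-Substance P for NK1 and [3H]-Diprenorphine for KOP, 1 h at room temperature. Filters PEI-presoaked, washed with cold 50 mM Tris-HCl pH 7.4, counted by scintillation; percent inhibition calculated, reference ligand defining non-specific binding.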
# Human melanocortin (MC5) = biological target: T5, Human melanocortin (MC5) (Homo sapiens, UniProt P33032); test: Radioligand binding, human melanocortin MC5 membranes, FlashPlate, [125I]-NDP-αMSH; settings: compound at 10 μM; [125I]-NDP-αMSH
# T5 construct: purchased Perkin Elmer Biosignal
# In short: as §1
# Human μ-opioid (MOP) = biological target: T6, Human μ-opioid (MOP) (Homo sapiens, UniProt P35372); test: Radioligand binding, human μ-opioid (MOP) membranes, FlashPlate, [3H]-Naloxone; settings: compound at 10 μM; [3H]-Naloxone
# T6 construct: purchased Perkin Elmer Biosignal
# In short: as §1
# Mouse urotensin (mUR2) = biological target: T7, Mouse urotensin (mUR2) (Mus musculus, UniProt Q8VIH9); test: Radioligand binding, mouse urotensin mUR2 membranes, FlashPlate, [125I]-Urotensin II; settings: compound at 10 μM; [125I]-Urotensin II
# T7 construct: purchased Perkin Elmer Biosignal
# T7 sequence (Q8VIH9 1-385): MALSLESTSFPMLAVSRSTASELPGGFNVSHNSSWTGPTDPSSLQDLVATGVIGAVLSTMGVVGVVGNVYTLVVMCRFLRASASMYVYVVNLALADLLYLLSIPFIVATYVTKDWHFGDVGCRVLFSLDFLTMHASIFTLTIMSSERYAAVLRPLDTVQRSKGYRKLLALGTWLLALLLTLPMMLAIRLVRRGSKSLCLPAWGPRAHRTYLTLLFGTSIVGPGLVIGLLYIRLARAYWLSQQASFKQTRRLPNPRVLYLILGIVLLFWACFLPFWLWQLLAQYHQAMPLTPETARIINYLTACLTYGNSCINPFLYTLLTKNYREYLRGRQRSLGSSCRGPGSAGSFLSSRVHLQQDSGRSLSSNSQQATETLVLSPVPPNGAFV
# In short: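 Cloned mouse urotensin (mUR2) receptor membranes from Perkin Elmer Biosignal were immobilized in FlashPlate microplates using a proprietary coating. Each well got 19.5 μl buffer, then 0.5 μl of DMSO, reference ligand, or compound. Adding 5 μl of [125I]-Urotensin II, diluted to 5× final concentration in binding buffer, started binding. Plates were sealed with TopSeal-A and incubated 1 hour at room temperature in the dark. Wells were counted for 30 seconds each on a TopCount after a 60-second delay, and percentage inhibition was calculated.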
# Human neurokinin (NK1) = biological target: T8, Human neurokinin (NK1) (Homo sapiens, UniProt P25103); test: Radioligand binding, human neurokinin NK1 membranes, filtration, [125I]-Substance P; settings: compound at 10 μM; [125I]-Substance P
# T8 construct: purchased Perkin Elmer Biosignal
# In short: as §2
# Human Melanocortin (MC4) = biological target: T9, Human Melanocortin (MC4) (Homo sapiens, UniProt P32245); test: Radioligand binding, human melanocortin MC4 membranes, FlashPlate, [125I]-NDP-αMSH; settings: compound at 10 μM; [125I]-NDP-αMSH
# T9 construct: purchased Perkin Elmer Biosignal
# In short: as §1
# [1] = biological target: T10, Human melanin-concentrating hormone (MCH1) (Homo sapiens, UniProt Q99705); test: Radioligand binding, human melanin-concentrating hormone MCH1 membranes, FlashPlate, [125I]-S36057; settings: compound at 10 μM; [125I]-S36057
# T10 construct: purchased Perkin Elmer Biosignal
# In short: as §1
# [2] = biological target: T11, Human neuropeptide Y (NPY-Y1) (Homo sapiens, UniProt P25929); test: Radioligand binding, human neuropeptide Y NPY-Y1 membranes, FlashPlate, [125I]-PYY; settings: compound at 10 μM; [125I]-PYY
# T11 construct: purchased Perkin Elmer Biosignal
# T11 sequence (P25929 1-384): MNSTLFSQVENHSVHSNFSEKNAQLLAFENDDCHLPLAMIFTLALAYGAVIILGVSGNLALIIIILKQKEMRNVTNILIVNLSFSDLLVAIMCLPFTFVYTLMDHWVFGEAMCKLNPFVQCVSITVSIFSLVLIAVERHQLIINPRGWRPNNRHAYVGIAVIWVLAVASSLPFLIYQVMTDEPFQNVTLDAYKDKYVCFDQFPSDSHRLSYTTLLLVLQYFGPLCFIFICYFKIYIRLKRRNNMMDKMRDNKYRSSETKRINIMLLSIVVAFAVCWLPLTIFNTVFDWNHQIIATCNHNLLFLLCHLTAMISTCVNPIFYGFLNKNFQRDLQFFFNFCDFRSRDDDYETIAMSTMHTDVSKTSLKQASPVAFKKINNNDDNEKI
# In short: as §1
# T1 sequence (P41968 whole entry): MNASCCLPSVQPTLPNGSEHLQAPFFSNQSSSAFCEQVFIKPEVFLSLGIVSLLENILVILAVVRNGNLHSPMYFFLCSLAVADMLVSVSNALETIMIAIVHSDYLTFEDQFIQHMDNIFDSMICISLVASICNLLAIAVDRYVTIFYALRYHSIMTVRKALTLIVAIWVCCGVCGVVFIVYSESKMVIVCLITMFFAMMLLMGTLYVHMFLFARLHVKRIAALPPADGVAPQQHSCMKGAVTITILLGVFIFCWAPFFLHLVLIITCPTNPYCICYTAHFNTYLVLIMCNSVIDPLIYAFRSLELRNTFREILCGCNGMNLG
# T10 sequence (Q99705 whole entry): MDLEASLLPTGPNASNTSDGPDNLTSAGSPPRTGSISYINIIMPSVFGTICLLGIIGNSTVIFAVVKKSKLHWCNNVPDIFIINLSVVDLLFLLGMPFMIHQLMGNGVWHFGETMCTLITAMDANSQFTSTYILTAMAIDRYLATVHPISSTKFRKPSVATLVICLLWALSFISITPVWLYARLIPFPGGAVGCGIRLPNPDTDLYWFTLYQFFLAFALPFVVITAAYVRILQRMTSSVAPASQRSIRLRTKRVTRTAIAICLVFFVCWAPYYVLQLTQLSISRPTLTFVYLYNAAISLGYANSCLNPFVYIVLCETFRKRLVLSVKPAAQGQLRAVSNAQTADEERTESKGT
# T8 sequence (P25103 whole entry): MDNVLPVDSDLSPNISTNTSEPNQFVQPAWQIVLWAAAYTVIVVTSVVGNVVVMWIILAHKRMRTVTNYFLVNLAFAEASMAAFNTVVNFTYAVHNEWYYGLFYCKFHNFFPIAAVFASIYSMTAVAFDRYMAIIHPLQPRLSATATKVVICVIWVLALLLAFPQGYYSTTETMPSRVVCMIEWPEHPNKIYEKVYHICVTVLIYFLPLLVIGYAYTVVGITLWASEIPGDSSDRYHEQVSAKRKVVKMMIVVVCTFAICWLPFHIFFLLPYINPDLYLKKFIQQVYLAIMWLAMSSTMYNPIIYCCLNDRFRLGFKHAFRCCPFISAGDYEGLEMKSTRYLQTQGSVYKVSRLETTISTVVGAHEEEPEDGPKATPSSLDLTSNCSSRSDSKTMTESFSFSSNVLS
# T6 sequence (P35372 whole entry): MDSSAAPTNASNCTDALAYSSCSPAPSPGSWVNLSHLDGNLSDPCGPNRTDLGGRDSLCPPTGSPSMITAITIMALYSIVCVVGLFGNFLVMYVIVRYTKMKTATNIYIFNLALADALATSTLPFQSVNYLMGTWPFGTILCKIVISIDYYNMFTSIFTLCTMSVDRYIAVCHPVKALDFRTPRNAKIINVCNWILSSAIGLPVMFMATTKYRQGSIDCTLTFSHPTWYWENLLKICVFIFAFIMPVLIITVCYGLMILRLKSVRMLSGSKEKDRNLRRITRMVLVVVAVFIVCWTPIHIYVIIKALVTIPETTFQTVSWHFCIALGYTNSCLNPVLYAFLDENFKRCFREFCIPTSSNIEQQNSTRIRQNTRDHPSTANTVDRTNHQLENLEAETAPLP
# T3 sequence (P41143 whole entry): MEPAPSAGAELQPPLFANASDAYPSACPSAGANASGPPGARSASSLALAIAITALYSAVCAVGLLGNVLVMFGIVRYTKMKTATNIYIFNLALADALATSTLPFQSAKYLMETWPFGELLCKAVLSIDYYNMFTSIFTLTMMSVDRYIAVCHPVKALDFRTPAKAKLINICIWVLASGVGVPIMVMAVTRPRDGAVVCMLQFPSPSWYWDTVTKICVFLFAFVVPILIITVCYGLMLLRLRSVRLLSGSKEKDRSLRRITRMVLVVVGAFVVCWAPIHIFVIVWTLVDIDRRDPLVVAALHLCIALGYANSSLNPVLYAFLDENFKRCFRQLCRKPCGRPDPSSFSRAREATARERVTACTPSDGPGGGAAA
# T2 sequence (P41146 whole entry): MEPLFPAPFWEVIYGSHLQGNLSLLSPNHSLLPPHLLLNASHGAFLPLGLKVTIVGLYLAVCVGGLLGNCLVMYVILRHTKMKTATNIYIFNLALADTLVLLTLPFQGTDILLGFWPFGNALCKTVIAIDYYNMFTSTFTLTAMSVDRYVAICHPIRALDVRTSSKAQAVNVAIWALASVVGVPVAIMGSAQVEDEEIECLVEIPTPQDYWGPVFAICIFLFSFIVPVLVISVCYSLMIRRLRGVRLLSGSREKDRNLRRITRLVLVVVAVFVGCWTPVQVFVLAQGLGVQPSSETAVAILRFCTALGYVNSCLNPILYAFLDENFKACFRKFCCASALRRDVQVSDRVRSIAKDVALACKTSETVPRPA
# T5 sequence (P33032 whole entry): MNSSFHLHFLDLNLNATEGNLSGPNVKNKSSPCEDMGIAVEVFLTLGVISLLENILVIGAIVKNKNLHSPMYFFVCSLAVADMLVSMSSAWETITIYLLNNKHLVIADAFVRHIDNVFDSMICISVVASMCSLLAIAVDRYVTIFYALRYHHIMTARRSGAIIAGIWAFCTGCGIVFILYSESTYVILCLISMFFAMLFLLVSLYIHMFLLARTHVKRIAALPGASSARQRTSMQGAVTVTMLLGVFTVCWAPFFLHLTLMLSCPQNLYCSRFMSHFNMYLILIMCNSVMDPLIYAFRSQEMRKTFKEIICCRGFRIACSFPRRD
# T4 sequence (P41145 whole entry): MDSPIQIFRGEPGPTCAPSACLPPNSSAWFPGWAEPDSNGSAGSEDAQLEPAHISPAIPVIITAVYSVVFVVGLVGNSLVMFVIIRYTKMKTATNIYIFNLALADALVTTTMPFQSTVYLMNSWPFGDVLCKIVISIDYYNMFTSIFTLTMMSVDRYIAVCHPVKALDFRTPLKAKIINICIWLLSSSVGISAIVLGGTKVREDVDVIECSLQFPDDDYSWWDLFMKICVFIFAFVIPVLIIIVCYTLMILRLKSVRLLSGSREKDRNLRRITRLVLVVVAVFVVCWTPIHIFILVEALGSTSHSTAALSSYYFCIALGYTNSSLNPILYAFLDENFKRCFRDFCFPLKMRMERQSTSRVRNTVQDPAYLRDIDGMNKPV
# T9 sequence (P32245 whole entry): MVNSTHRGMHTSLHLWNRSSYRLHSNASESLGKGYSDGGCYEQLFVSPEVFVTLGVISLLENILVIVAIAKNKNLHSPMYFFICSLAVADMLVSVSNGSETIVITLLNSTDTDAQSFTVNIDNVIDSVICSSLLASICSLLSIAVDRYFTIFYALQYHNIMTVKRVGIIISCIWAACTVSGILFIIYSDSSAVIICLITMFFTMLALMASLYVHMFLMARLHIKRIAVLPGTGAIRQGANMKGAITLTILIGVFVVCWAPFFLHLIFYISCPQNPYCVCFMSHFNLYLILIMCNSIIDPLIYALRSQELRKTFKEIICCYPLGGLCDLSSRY
SMILES,"A3: inhibition of radioligand binding, human melanocortin (MC3) (Human Melanocortin (MC3))","A10: inhibition of radioligand binding, human opioid (ORL1) (Human opioid (ORL1))","A1: inhibition of radioligand binding, human δ-opioid (DOP) (Human δ-opioid (DOP))","A2: inhibition of radioligand binding, human κ-opioid (KOP) (Human κ-Opioid (KOP))","A5: inhibition of radioligand binding, human melanocortin (MC5) (Human melanocortin (MC5))","A7: inhibition of radioligand binding, human μ-opioid (MOP) (Human μ-opioid (MOP))","A11: inhibition of radioligand binding, mouse urotensin (mUR2) (Mouse urotensin (mUR2))","A8: inhibition of radioligand binding, human neurokinin (NK1) (Human neurokinin (NK1))","A4: inhibition of radioligand binding, human melanocortin (MC4) (Human Melanocortin (MC4))","A6: inhibition of radioligand binding, human melanin-concentrating hormone (MCH1) [1]","A9: inhibition of radioligand binding, human neuropeptide Y (NPY-Y1) [2]"
CSC1OC(COCc2ccc(Cl)cc2)C(O)C(OCc2ccc3ccccc3c2)C1NC(=O)CCNC(=N)N (stereo not shown) [compound 309],− (“−” indicates less than 50% inhibition at 10 μM),− (“−” indicates less than 50% inhibition at 10 μM),− (“−” indicates less than 50% inhibition at 10 μM),− (“−” indicates less than 50% inhibition at 10 μM),+ (“+” indicates greater than 50% inhibition at 10 μM),− (“−” indicates less than 50% inhibition at 10 μM),− (“−” indicates less than 50% inhibition at 10 μM),+ (“+” indicates greater than 50% inhibition at 10 μM),− (“−” indicates less than 50% inhibition at 10 μM),− (“−” indicates less than 50% inhibition at 10 μM),− (“−” indicates less than 50% inhibition at 10 μM)
CSC1OC(COCc2ccc(Cl)cc2)C(O)C(OCc2ccc3ccccc3c2)C1NC(=O)CCCN (stereo not shown) [compound 310],− (“−” indicates less than 50% inhibition at 10 μM),− (“−” indicates less than 50% inhibition at 10 μM),− (“−” indicates less than 50% inhibition at 10 μM),− (“−” indicates less than 50% inhibition at 10 μM),− (“−” indicates less than 50% inhibition at 10 μM),− (“−” indicates less than 50% inhibition at 10 μM),− (“−” indicates less than 50% inhibition at 10 μM),+ (“+” indicates greater than 50% inhibition at 10 μM),− (“−” indicates less than 50% inhibition at 10 μM),− (“−” indicates less than 50% inhibition at 10 μM),− (“−” indicates less than 50% inhibition at 10 μM)
CSC1OC(COCc2ccc(Cl)cc2)C(O)C(OCc2ccc3ccccc3c2)C1NC(=O)CCCNC(=N)N (stereo not shown) [compound 311],− (“−” indicates less than 50% inhibition at 10 μM),− (“−” indicates less than 50% inhibition at 10 μM),− (“−” indicates less than 50% inhibition at 10 μM),− (“−” indicates less than 50% inhibition at 10 μM),+ (“+” indicates greater than 50% inhibition at 10 μM),− (“−” indicates less than 50% inhibition at 10 μM),− (“−” indicates less than 50% inhibition at 10 μM),+ (“+” indicates greater than 50% inhibition at 10 μM),+ (“+” indicates greater than 50% inhibition at 10 μM),− (“−” indicates less than 50% inhibition at 10 μM),− (“−” indicates less than 50% inhibition at 10 μM)
CSC1OC(COCc2ccc(-c3ccccc3)cc2)C(O)C(OCc2ccc3ccccc3c2)C1NC(=O)CNC(=N)N (stereo not shown) [compound 312],+ (“+” indicates greater than 50% inhibition at 10 μM),− (“−” indicates less than 50% inhibition at 10 μM),− (“−” indicates less than 50% inhibition at 10 μM),− (“−” indicates less than 50% inhibition at 10 μM),+ (“+” indicates greater than 50% inhibition at 10 μM),− (“−” indicates less than 50% inhibition at 10 μM),− (“−” indicates less than 50% inhibition at 10 μM),+ (“+” indicates greater than 50% inhibition at 10 μM),+ (“+” indicates greater than 50% inhibition at 10 μM),− (“−” indicates less than 50% inhibition at 10 μM),− (“−” indicates less than 50% inhibition at 10 μM)
CSC1OC(COCc2ccc(-c3ccccc3)cc2)C(O)C(OCc2ccc3ccccc3c2)C1NC(=O)CCN (stereo not shown) [compound 313],− (“−” indicates less than 50% inhibition at 10 μM),− (“−” indicates less than 50% inhibition at 10 μM),− (“−” indicates less than 50% inhibition at 10 μM),− (“−” indicates less than 50% inhibition at 10 μM),+ (“+” indicates greater than 50% inhibition at 10 μM),− (“−” indicates less than 50% inhibition at 10 μM),− (“−” indicates less than 50% inhibition at 10 μM),+ (“+” indicates greater than 50% inhibition at 10 μM),− (“−” indicates less than 50% inhibition at 10 μM),− (“−” indicates less than 50% inhibition at 10 μM),− (“−” indicates less than 50% inhibition at 10 μM)
